The test system of data set [1] is sole reaction in sheep red blood cells (SRBC). In words: sole reaction to sheep red blood cells (SRBC), foot volume increase 24 hours after induction. The following applies: 3.0 x 10⁻⁴ mol/kg orally for four days after the sensitization. It is filed as in vivo, BALB/c mice. The protocol: The actions of the compounds of the present invention in the course of creation of the cellular immunity were studied using the sole reaction in sheep red blood cells (SRBC).
BALB/c mice (female, age: 7 weeks) were sensitized by injecting 0.2 ml of SRBC adjusted to 2.5 x 10⁵ cells/ml with a physiological saline solution into caudal vein. Four days after the sensitization, the volume of the right foot of the mice was measured. Then, 0.025 ml of SRBC from the same lot as above adjusted to 4 x 10⁹ cells/ml was subcutaneously injected into the right sole to induce a reaction. 24 hours after the reaction has been induced, the intensity of the reaction was determined by subtracting the right foot volume before the reaction from the volume after the reaction. The test compounds at a concentration of 3.0 x 10⁻⁴ mol/kg were orally administered for four days after the sensitization.

In another data set the test system is ICR mice. Particulars: mouse, in vivo, po. The source says: Compounds obtained in Synthetic Examples 18, 35, and 66 were orally administered to ICR mice (each dose to each group consisting of 10 mice).
The mark [2] stands for this setting: against Control 3 (Purified water).
Setting [3] is: against Control 2 (5% ethanol-olive oil).

Molecules are shown by their SMILES.

On to `Oc1cccc(CNCc2cccc(O)c2)c1` [Synthetic Example 7, N,N-bis(3-hydroxybenzyl)amine], for which the “Rate of suppression (%)” value in data set [1] (setting [2]) came to 54.4%.
As for `COc1ccc(CNCc2ccc(OC)cc2)cc1.O=C(O)/C=C\C(=O)O` [Synthetic Example 46, N,N-bis(4-methoxybenzyl)amine maleate], the “Rate of suppression (%)” value in data set [1] (against Control 1 (0.5% gum arabic-purified water)) stood at 38.1%.
For the compound `CCN(Cc1ccc(O)cc1)Cc1cccc(O)c1` [Synthetic Example 61, N-ethyl-N-(4-hydroxybenzyl)-3-hydroxybenzylamine], in data set [1] (setting [3]), the “Rate of suppression (%)” value was found to be 21.8%.
Same read-out and setting: the value for `CN(Cc1ccc(O)cc1)C(=O)c1cccc(O)c1` [Synthetic Example 25, N-(4-hydroxybenzyl)-N-methyl-3-hydroxybenzamide] was 26.7%.
For the compound `COc1ccc(CCNCCc2ccc(O)c(OC)c2)cc1O` [Synthetic Example 66, N-(4-hydroxy-3-methoxyphenetyl)-3-hydroxy-4-methoxyphenetylamine], in the data set with ICR mice, the “dose up to which no death was caused” value is listed as ≤ 1,000 mg/kg.
Take `CN(Cc1ccc(O)cc1)Cc1cccc(O)c1` [Synthetic Example 30, N-(4-hydroxybenzyl)-N-methyl-3-hydroxybenzylamine]: the “Rate of suppression (%)” value in data set [1] (setting [3]) amounted to 33.2%.
With `COc1ccc(CN(C)Cc2ccc(O)c(OC)c2)cc1O` [Synthetic Example 35, N-(4-hydroxy-3-methoxybenzyl)-N-methyl-3-hydroxy-4-methoxybenzylamine], in the data set on ICR mice, the “dose up to which no death was caused” value was ≤ 1,000 mg/kg.
Consider `COc1ccc(CC(=O)NCCc2ccc(O)c(OC)c2)cc1O` [Synthetic Example 18, N-(4-hydroxy-3-methoxyphenetyl)-3-hydroxy-4-methoxyphenylacetamide], for which the “dose up to which no death was caused” value in the data set with ICR mice is ≤ 1,000 mg/kg.
For the compound `COc1ccc(CN(C)Cc2cccc(OC)c2)cc1` [Synthetic Example 27, N-(4-methoxybenzyl)-N-methyl-3-methoxybenzylamine], the “Rate of suppression (%)” value in data set [1] (setting [2]) turned out to be 32.8%.

Source of the values: patent publication EP0613879A1, “PHELLODENDRINE ANALOGS AND ALLERGY TYPE IV SUPPRESSOR CONTAINING THE SAME AS ACTIVE INGREDIENT” (TSUMURA & CO., priority 1991, dated 1992).
